Columns and labels:
Type in all cases: cell-based, Saccharomyces cerevisiae
[1] = system: prototrophic yeast strain (CEN.PK113-7D); test: Propidium iodide fluorescence-based chronological lifespan (CLS) method in yeast, incl. high-throughput screening; conditions: for Yeast CLS increase / PI intensity: 100 μM tested; for Yeast CLS increase: Yes/No call; for PI intensity: chronological age point day 7 (72 h growth = day 1), lower PI = more survival
Experimental: Chronological lifespan (CLS) experiments were conducted in 96-well plates with 200 μL yeast culture. The prototrophic wild-type yeast strain (CEN.PK113-7D) and snf1Δ deletion strains were grown in the SD medium in 96-well plates at 30° C. Saccharomyces cerevisiae BY4743 strain was grown in the SD medium supplemented with histidine (40 mg/L), leucine (160 mg/L), and uracil (40 mg/L) in 96-well plates at 30° C. For assays testing the effect of rapamycin, cellular inoculum was transferred into 96-well plates containing serially double-diluted concentrations (0 to 10 nM) of rapamycin. […] Likewise, cellular inoculum was transferred into the 96-well plates containing serially double-diluted concentrations (0-8 mM) of D-fructose, D-mannitol, D-maltose, and D-sorbitol. Cells were incubated at 30° C., and the growth was measured at different time points. […] Cell survival was quantified at various age time points by three different approaches: (i) propidium iodide fluorescence-based method, (ii) outgrowth in YPD liquid medium and (iii) spotting assay (FIG. 1).
40 μL yeast cells on different age time points were transferred into a 96-well plate different to the 96-well plate in which the CLS analysis was performed. Cells were washed and incubated in 100 μL 1×PBS with PI (5 μg/mL) for 15 minutes in the dark. Positive and negative sample control were included for quantitative analysis. Positive control (cells boiled at 100° C. for 15 min) was PI-stained and processed in the same 96-well plate. Samples without PI-stained cells served as the negative control. After incubation, cells were washed and resuspended in 100 μL PBS. The fluorescence reading of the samples (excitation at 535 nm, emission at 617 nm) and OD600 nm were measured by a microplate reader (BioTek, Winooski, Vermont, United States). The fluorescence intensity of each sample was normalized with OD600 nm. The normalized fluorescence intensity of each sample was subtracted from the background signal of the unstained negative sample. The obtained fluorescence intensity of the positive control sample (boiled dead cells) was considered 0% cell survival. […] Cell survival of different age time point samples were calculated by normalizing the fluorescence intensity with positive control sample (boiled cells).
The prototrophic yeast strain (CEN.PK113-7D) was grown in the synthetic defined medium with indicated concentrations of rapamycin in 96-well plates at 30° C. A total of 30 samples of individual rapamycin concentration was tested with DMSO control (0 nM rapamycin) for Z-factor analysis. […] The chronological lifespan of the aged cells was determined by the outgrowth method in YPD liquid medium. […] At chronological age point day 4, 3 μL culture were transferred to a second 96-well plate containing 200 μL YPD medium. […] The CLS of different concentrations of rapamycin incubated cells was determined using the propidium iodide fluorescence-based method (FIG. 2C). […] Z-factor of different concentrations of rapamycin was analyzed using the formula Z=1−[3×(standard deviation of control sample+standard deviation of rapamycin sample)/(mean of control sample−mean of rapamycin sample)].
High-throughput screening of various chemicals was tested using the same protocol for the propidium iodide fluorescence-based method as described above. The prototrophic yeast strain (CEN.PK113-7D) was grown in the synthetic defined medium with different chemical reagents with a single testing concentration (Table 1) in addition to eight replicates of DMSO and water controls in 96-well plates at 30° C.

[2] = system: prototrophic yeast strain (CEN.PK113-7D); test: Yeast outgrowth in YPD liquid medium (CLS of aged cells); conditions: 100 μM tested; outgrowth OD600 nm in YPD after 24 h, age point day 14
Experimental: This quantification was performed by using the formula,
The CLS of the aged cells was further determined by the yeast outgrowth in YPD liquid medium method as described above. […] At chronological age point day 14, 3-μL of culture were transferred to a second 96-well plate containing 200 μL YPD medium.

[3] = system: prototrophic yeast strain (CEN.PK113-7D); test: Yeast cell growth (OD600 nm) with rapamycin in SD medium
Experimental: Chronological lifespan (CLS) experiments were conducted in 96-well plates with 200 μL yeast culture. The prototrophic wild-type yeast strain (CEN.PK113-7D) and snf1Δ deletion strains were grown in the SD medium in 96-well plates at 30° C. Saccharomyces cerevisiae BY4743 strain was grown in the SD medium supplemented with histidine (40 mg/L), leucine (160 mg/L), and uracil (40 mg/L) in 96-well plates at 30° C. For assays testing the effect of rapamycin, cellular inoculum was transferred into 96-well plates containing serially double-diluted concentrations (0 to 10 nM) of rapamycin. For calorie restriction assay, cellular inoculums were prepared in SD medium containing 2% w/v, 0.5% w/v, and 0.25% w/v glucose and transferred to 96-well plates. […] Cells were incubated at 30° C., and the growth was measured at different time points. […] Cell survival was quantified at various age time points by three different approaches: (i) propidium iodide fluorescence-based method, (ii) outgrowth in YPD liquid medium and (iii) spotting assay (FIG. 1).
The effect of rapamycin on the CLS of a yeast strain was studied to examine the validity of the inventive protocol. […] Cells were aged with different concentrations of rapamycin in the SD medium and their respective growth at different time points (24 hours, 48 hours and 72 hours) were measured. […]

OC[C@H]1O[C@H](CO)[C@@H](O)[C@@H]1O [2,5-anhydromannitol, 2,5-anhydro-D-mannitol]
extension of CLS of yeasts ([1]; screen, PI method): extend the CLS of yeasts

O=C(O)[C@@H]1CCCN1 [I-pyrrolidine-2-carboxylic acid]
Outgrowth [2]: 0.1 | Yeast CLS increase [1]: No | PI intensity [1]: 80,551.7

CO[C@H]1C[C@@H]2CC[C@@H](C)[C@@](O)(O2)C(=O)C(=O)N2CCCC[C@H]2C(=O)O[C@H]([C@H](C)C[C@@H]2CC[C@@H](O)[C@H](OC)C2)CC(=O)[C@H](C)/C=C(\C)[C@@H](O)[C@@H](OC)C(=O)[C@H](C)C[C@H](C)/C=C/C=C/C=C/1C [Rapamycin]
time to cell growth saturation ([3]; 5 nM or less rapamycin): approximately 24 hours | time to cell growth saturation ([3]; 10 nM rapamycin (slowed cell growth)): 48 h | survival of aged cells ([1]; 5 nM and 10 nM, day 4 (without rapamycin approx. 50%)): approximately 75% | survival of aged cells ([1]; day 7 (without rapamycin less than 20%)): approximately 70%

O=C(Oc1nc2[nH]c(=O)[nH]c(=O)c2[nH]1)c1cccnc1 [Xanthinol Nicotinate]
Yeast CLS increase [1]: No

Aliskiren (hemiumarate)
PI intensity [1]: 73,607.3

From patent US20250164468A1, “Method for Cellular Lifespan Measurement” (AGENCY FOR SCIENCE, TECHNOLOGY AND RESEARCH, priority 2022, published 2025)
